Laboratory results as given in patent US6465428B1, “Pharmaceutical combinations based on dalfopristine and quinupristine, and on cefepime” (Aventis Pharma S.A., priority 1999, dated 2002).
Converted amounts (≈) assume the structure as drawn.

Key:
[1] = system: MRSA clinical isolates (Staphylococcus aureus resistant to methicillin); assay: MIC by broth macrodilution; assay type: cell-based; settings: for Range of MICs: 5 clinical isolates, 24 h at 35° C.
Method: A panel of 10 clinical isolates of MRSA (5 MLSB-susceptible (susceptible to Macrolide-Lincosamide-Streptogramin B) and 5 C-MLSB-resistant (Constitutively Resistant to Macrolide-Lincosamide-Streptogramin B)) originating from various geographical areas were tested for their susceptibilities to quinupristin/dalfopristin and to cefepime. Two of these isolates, namely AW7 and P8, were further used for animal experiments. These both were C-MLSB-resistant.
Bacteria were grown at 35° C., either in liquid cultures in tryptic soy broth (TSB; Difco Laboratories, Detroit, Mich.) or cation supplemented Mueller Hinton Broth (MHB; Difco), or on tryptic soy agar (TSA; Difco). All growth media were supplemented with 2% of sodium chloride to increase the expression of β-lactam resistance by MRSA. Bacterial stocks were kept at −70° C. in TSB, supplemented with 10% (vol/vol) glycerol.
The MIC (minimum inhibitory concentration) of the tested antibiotics was determined by a known broth macrodilution method (D. Amsterdam, Susceptibility testing of antimicrobials in liquid media, p.52-111, In V. Lorian ed., Antibiotics in Laboratory Medicine, Williams and Wilkins, Baltimore (1996)) with final inoculum of 10^5 to 10^6 CFU/ml. The MIC was defined as the lowest antibiotic concentration that inhibited visible bacterial growth after 24 hours of incubation at 35° C.

[2] = system: C-MLSB resistant MRSA AW7 and P8; assay: Experimental endocarditis in rats; assay type: in vivo, rat; settings: i.v. pump simulating human kinetics, every 12 hours
Text: Sterile aortic vegetations were produced in female Wistar rats (weight 180 to 200 g) by the method of Heraiefet al., Infect Immunol., 37, 127-31 (1982), the disclosure of which is incorporated herein by reference in its entirety. Close by, an intravenous line containing a Silastic catheter was inserted into the jugular vein of a rat. The distal portion of the catheter was connected to a programmable pump device through a swivel, thus allowing the animals to move around their cage. The pump was set to deliver a volume of 0.2 ml of saline per hour to keep the line open until the onset of the therapy. In some experiments, quinupristine/dalfopristine was injected in combination with cefepime to the animals, with 2 infusion pumps, one to simulate human kinetics of quinupristine/dalfopristine and one to simulate human kinetics of cefepime. The 2 pumps were connected to a 2 way swivel and the drugs were infused into the animals via 2 independent jugular lines. No i.v. lines were placed in the control animals. Bacterial endocarditis was induced 24 hours after catheterization of the animals with 0.5 ml of saline containing 10^5 CFU of either of the test organisms. This inoculum was 10 times larger than the minimum inoculum producing endocarditis in 90% of the untreated rats.
Treatment was started 12 hours after bacterial challenge and lasted 3 or 5 days. The distribution of the antibiotics simulated the drug kinetics in the serum of humans. Quinupristine/dalfopristine was given to simulate treatment in humans with 7 mg/kg of the drug administered i.v. every 12 hours. Cefepime was given to simulate treatment in humans with 2 g of the drug given i.v. every 12 hours. This required, for the experiment, a total amount (mg/kg of body weight) per 12 hours of 38 mg/kg of quinupristine/dalfopristine and 142 mg/kg of cefepime.
The control rats were sacrificed at the onset of the treatment (i.e., 12 hours after inoculation) in order to measure both the frequency and the severity of valvular infection at the start of the therapy. Treated rats were sacrificed 12 hours after the low level of the last antibiotic dose of either test drug. At that time, no residual antibiotic could be detected in the blood. The valvular vegetation were dissected under sterile conditions, weighed, homogenized in 1 ml of saline, and serially diluted before being plated for colony counts. The number of colonies growing on the plates was determined after 48 hours of incubation at 35° C. Bacterial densities in the vegetations were expressed as log10 CFU/g of tissue. The minimum detection level was ≧2 log10 CFU/g of vegetation. For statistical comparisons of differences between the vegetation bacterial densities of various treatment groups, culture-negative vegetations were considered to contain 2 log10 CFU/g. […]

- Range of MICs ([1]; MRSA C-MLSB-R): >64 mg/L
- Range of MICs ([1]; MRSA MLSB-S): >64 mg/L
- MIC ([1]; Staphylococcus aureus, C-MLSB resistant MRSA AW7 and P8): 64 µg/mL (≈ 133 µM)
Compound: CO/N=C(\C(=O)N[C@@H]1C(=O)N2C(C(=O)[O-])=C(C[N+]3(C)CCCC3)CS[C@H]12)c1csc(N)n1 [cefepime, (6R,7R)-7-(2-(2-aminothiazol-4-yl)-2(Z)-(methoxyimino)acetamido)-3-(1-methyl-pyrrolidiniomethyl)-3-cephem-4-carboxylate]
- infected rats/total rats ([2]; Strain AW-7): 6/6
- median log10 CFU/g of vegetation ([2]; Strain AW-7): (8.6) log10 CFU/g
- infected rats/total rats ([2]; Strain P8): 8/8
- median log10 CFU/g of vegetation ([2]; Strain P8): (9.0) log10 CFU/g
